Experimental data reported in article PMC10377753, “Pharmacokinetic and pharmacodynamic properties of polymyxin B in Escherichia coli and Klebsiella pneumoniae murine infection models” (Journal of Antimicrobial Chemotherapy, 2023).
Counter-ions that a name gives are not always drawn. Bridge positions count the residues as written; N and C are the ends. Square brackets hold non-standard residues; d marks the D form. Peptide text beside a SMILES is read from it. * marks the point of attachment. X1 = CC[C@H](C)CCCCC(=O)*; Dab = NCC[C@H](N)C(=O)O

Legend:
[1] = Plasma PK after single subcutaneous dose in infected neutropenic mice, population PK model; type: in vivo; conditions: for Time up to which plasma levels were detectable: LOQ 0.2 mg/L
Protocol: Mice were injected subcutaneously with a 0.1 mL single dose of polymyxin B 2 h after infection (t = 0). The PK of polymyxin B ranging between 0.5 and 64 mg/kg were determined in two mice per dose level. Mice were separated into two groups, with four dose levels studied in the thigh infection model (0.5, 2, 8, 32 mg/kg) and four dose levels studied in the lung infection model (1, 4, 16, 64 mg/kg). At t = 0, two mice were humanely euthanized to determine the bacterial load in the infected organ at the start of infection. At 10 different timepoints, blood was collected under isoflurane anaesthesia, in K3E EDTA tubes (Sarstedt, Nümbracht, Germany) through orbital sinus bleeding, which was immediately followed by cervical dislocation. The collected blood samples were centrifuged immediately at 15 871 RCF for 5 min at 4°C. Plasma was stored at −80°C until analysis.
Polymyxin B concentrations in plasma, BAL and ultrafiltrates were determined by a validated LC-MS/MS method,[18] with a lower limit of quantification (LOQ) of 0.2 mg/L for plasma and 0.05 mg/L for BAL fluid and ultrafiltrates. In this assay, 0.1 mL of plasma or 0.05 mL of BAL fluid or ultrafiltrates was added to 0.05 mL of drug-free plasma, and was mixed with 0.75 mL of phosphate buffer (pH 7.2) and 0.01 mL of internal standard (colistin sulphate, Merck KGaA, Darmstadt, Germany) at 6.25 mg/L for plasma and 5 mg/L for BAL fluid and ultrafiltrates. The samples were briefly vortexed and then centrifuged at 3000 rpm for 5 min. The supernatants (0.8 mL) were loaded onto solid-phase extraction columns (Oasis HLB solid-phase extraction cartridges, 1 mL, 30 mg, Waters, Saint-Quentin-en-Yvelines, France), preconditioned with 1 mL of methanol and followed by 1 mL of water. Columns were washed with 1 mL of water and dried under nitrogen pressure. The analytes were eluted with 0.5% formic acid in methanol and they were evaporated at 45°C under a gentle nitrogen jet stream. The residues were dissolved in 0.1 mL of 0.1% formic acid in water and analysed by LC-MS/MS. The system included an Alliance Waters 2695 LC system module (Waters) coupled with an API Quattro Micro (Waters). Polymyxin B was analysed on an XBridge C18 column (5 µm, 2.1 × 150 mm; Waters). The mobile phase A consisted of 0.1% formic acid in water, and mobile phase B was 0.1% formic acid in acetonitrile. The gradient for mobile phases A and B were respectively set at 75% and 25% with a flow rate of 0.2 mL/min. Electrospray ionization in positive mode was used for the detection of polymyxin B. Ions were analysed in the multiple reaction monitoring, and the following transitions were inspected: m/z 602.1→101 for polymyxin B1, m/z 595.1→101 for polymyxin B2, m/z 585.1→101 for CSTA and m/z 578.1→101 for CSTB. Calibration curves of polymyxin B ranged from 0.1 to 10 mg/L for plasma and ultrafiltrates, and were quantified with a quadratic regression mode. The intraday variability was characterized at four levels (0.3, 1, 2.5 and 10 mg/L) with a precision and bias of <20% for the lowest level, and <15% for the others.
A population PK model was developed using non-linear mixed-effects modelling (NONMEM, version 7.4.2 ICON Development Solutions, Ellicott City, MD, USA). The analysis was performed using the FOCE + I method on logarithmically transformed concentrations and data below the LOQ were omitted. Parameters were calculated for a virtual 1 kg mouse, resulting in pharmacokinetic parameters corresponding on a per kg base. In the first step a structural model was developed, using one- and two-compartment models. The absorption following subcutaneous injections was described using an absorption rate constant (ka). Typical values for central (Vc) and peripheral volume of distribution (Vp), CL and intercompartmental clearance (Q) were estimated. As bioavailability (F) could not be estimated, CL, Vc, Q, and Vp values corresponded to the ratios CL/F, Vc/F, Q/F and Vp/F, respectively. […]

[2] = Epithelial lining fluid (ELF) concentration from BAL, urea correction; type: in vivo; conditions: lung-infected mice
Protocol: Bronchoalveolar lavage (BAL) was performed immediately after blood collection. The trachea was exposed by a ventral vertical incision in the neck for insertion of a cannula. Lungs were instilled two times with 1 mL of sterile saline, and the fluid was recovered immediately. The recovered lavages were pooled, directly placed on ice, and subsequently stored at −80°C.
By taking BAL fluid samples and a plasma sample at the same timepoint, the concentrations in ELF could be determined. The ratio of the urea concentration in BAL to the concentration in plasma was used to determine the ELF concentration.[17] In short, polymyxin B concentration in ELF was calculated by multiplying the polymyxin B concentration in the BAL fluid by the ratio of the urea concentration in the plasma and BAL fluid: [polymyxin B]ELF = [polymyxin B]BAL × ([urea]Plasma/[urea]BAL). Urea concentrations were measured with an enzymatic assay (QuantiChrom urea assay kit; DIUR-100; BioAssay Systems, Hayward, CA, USA).
Polymyxin B concentrations in plasma, BAL and ultrafiltrates were determined by a validated LC-MS/MS method,[18] with a lower limit of quantification (LOQ) of 0.2 mg/L for plasma and 0.05 mg/L for BAL fluid and ultrafiltrates. […] The residues were dissolved in 0.1 mL of 0.1% formic acid in water and analysed by LC-MS/MS. […] Polymyxin B was analysed on an XBridge C18 column (5 µm, 2.1 × 150 mm; Waters). […]

Structure (SMILES): CC[C@H](C)CCCCC(=O)N[C@@H](CCN)C(=O)N[C@H](C(=O)N[C@@H](CCN)C(=O)N[C@H]1CCNC(=O)[C@H]([C@@H](C)O)NC(=O)[C@H](CCN)NC(=O)[C@H](CCN)NC(=O)[C@H](CC(C)C)NC(=O)[C@@H](Cc2ccccc2)NC(=O)[C@H](CCN)NC1=O)[C@@H](C)O [polymyxin B, Polymyxin B sulphate salt] (X1-[Dab]T[Dab][Dab][Dab][dF]L[Dab][Dab]T; lactam 4-C)
- ka, absorption rate constant for 10 mg/kg dose ([1]; infected neutropenic mice, single s.c. dose 0.5–64 mg/kg, plasma LC-MS/MS, population PK (NONMEM), one-compartment, first-order absorption): 1.63 h⁻¹
- Time up to which plasma levels were detectable ([1]; mouse, s.c., doses 16–64 mg/kg): up to 8 h
- Time up to which plasma levels were detectable ([1]; mouse, s.c., doses up to 8 mg/kg): up to 6 h
- Time to peak (Tmax) ([1]; mouse, s.c., thigh and lung infection model): ≤ 2 h
- CL/F ([1]; mouse, sc, 10 mg/kg, infected neutropenic mice, single s.c. dose 0.5–64 mg/kg, plasma LC-MS/MS, population PK (NONMEM), one-compartment, read-out: CL/F, clearance for 10 mg/kg dose (converted)): 6.4 mL/min/kg
- Vd/F ([1]; mouse, sc, infected neutropenic mice, single s.c. dose 0.5–64 mg/kg, plasma LC-MS/MS, population PK (NONMEM), one-compartment, read-out: Vc/F, central volume of distribution): 0.774 L/kg
- Dose on CL, power on covariate effect of dose on CL ([1]; population PK model, CL = 0.384 × (DOSE/10)^−0.26): −0.26
- Dose on ka, power on covariate effect of dose on ka ([1]; population PK model, ka = 1.63 × (DOSE/10)^−0.407): −0.407
- Concentration in ELF ([2]; 64 mg/kg s.c., BAL, urea correction, data not shown): Low levels
- Concentration in ELF ([2]; other doses (1, 4, 16 mg/kg s.c.), LOQ 0.05 mg/L for BAL fluid): below the LOQ
